Source: patent US20230263742A1, “A LIPID” (Stemirna Therapeutics Co., Ltd., priority 2021, published 2023)

Columns and labels:
[1] = Encapsulation efficiency (RIBOGREEN kit); type: physicochemical; details: Luc mRNA-LNP 50:10:38.5:1.5
Experimental: For nanoparticle compositions including an RNA, a QUANT-IT™ RIBOGREENR®RNA assay (Invitrogen Corporation Carlsbad, Calif.) can be used to evaluate the encapsulation of an RNA by the nanoparticle composition. The samples were diluted to a concentration of approximately 5 μg/mL in a TE buffer solution (10 mM Tris-HCl, 1 mM EDTA, pH 7.5). 50 μL of the diluted samples are transferred to a polystyrene 96 well plate and either 50 μL of TE buffer or 50 μL of a 2% Triton X-100 solution is added to the wells. The plate is incubated at a temperature of 37° C. for 15 minutes. The RIBOGREENR reagent is diluted 1:100 in TE buffer and 100 μL of this solution is added to each well. The fluorescence intensity can be measured using a fluorescence plate reader (Wallac Victor 1420 Multilablel Counter; Perkin Elmer, Waltham, Mass.) at an excitation wavelength of, for example, about 480 nm and an emission wavelength of, for example, about 520 nm. The fluorescence values of the reagent blank are subtracted from that of each of the samples and the percentage of free RNA is determined by dividing the fluorescence intensity of the intact sample (without addition of Triton X-100) by the fluorescence value of the disrupted sample (caused by the addition of Triton X-100).
Encapsulation efficiency detection method: LNP content and encapsulation efficiency detection were carried out according to the RIBOGREEN kit.

[2] = Particle size, PDI and zeta potential by dynamic light scattering; type: physicochemical; details: for PDI / Zeta potential: Luc mRNA-LNP 50:10:38.5:1.5; for Size: Luc mRNA-LNP, lipid:phospholipid:cholesterol:PEG-DMG 50:10:38.5:1.5
Experimental: A Zetasizer Nano ZS (Malvern Instruments Ltd, Malvern, Worcestershire, UK) can be used to determine the particle size, the polydispersity index (PDI) and the zeta (ζ) potential of the nanoparticle compositions in 1×PBS in determining particle size and 15 mM PBS in determining zeta (ζ) potential.
The evaluation method of particle size and zeta potential: 50 μL LNP sample was diluted with 950 μL purified water to obtain the diluted LNP sample. The sample was placed in a dynamic light scattering laser particle size analyzer (Malvern, ZS-90) for testing.

Balb/C mice [3] = test: In vivo Luc expression after intramuscular injection, compared with MC3 (Example 4); details: 5 μg Luc mRNA-LNP (DSPC) intramuscularly, Balb/C mice n=3, 6 hours
Experimental: The mRNA nanoparticle compositions of SW-II-118, SW-120, and SW-121 were prepared according to the method provided in Example 3. The ratios of the lipids were 50:10:38.5:1.5 mol % for cationic lipid: DSPC: cholesterol: PEG-DMG. The cationic lipid MC3 was a current standard in the art. Accordingly, the standard MC3 formulation including 50 mol % MC3, 10 mol % DSPC, 38.5 mol % cholesterol, and 1.5 mol % PEG-DMG was used as a reference for this study.
5 μg of Luc mRNA-LNP of MC3, SW-II-118, SW-II-120, or SW-II-121 was intramuscularly injected into Balb/C mice (n=3). 6 hours after the administration, the mice were injected intraperitoneally with 0.15 mg/kg […] substrate. 15 minutes after the injection of the substrate, the fluorescence signal intensity was tested under a small animal in vivo imaging instrument.

Balb/C mice [4] = test: Luc expression in injection site and liver site after intramuscular administration (Example 5); type: in vivo; details: 5 μg Luc mRNA-LNP (DSPC) intramuscularly, Balb/C mice n=3, 6 h
Experimental: Further bioluminescence studies were performed to investigate the delivery efficiency of nanoparticle compositions including various lipid compounds according to the present invention. The formulations containing reference cationic lipid M62, M63, M118, and M119 (corresponding to Compound 62, 63, 118, and 119 in PCT/US2018/022717 (WO2018/170306), respectively) were evaluated for comparison. Nanoparticle compositions including DSPC as an optimized phospholipid, cholesterol as a structural lipid, PEG-DMG as a PEG lipid, an RNA, and a compound above mentioned were prepared according to or via methods similar to those described in Examples 1 and 2. The ratios of the lipids were 50:10:38.5:1.5 mol % for the lipid of the present invention: DSPC: cholesterol: PEG-DMG. 5 μg of LNP solution containing luciferase mRNA was administered intramuscularly to Balb/C mice (n=3). 6 hours after administration, mice were injected intraperitoneally with 0.15 mg/kg of D-luciferin substrate. Within 15 minutes after the injection of the substrate, the fluorescence signal intensity in injection site and liver site were tested under a small animal in vivo imaging instrument. Tables 3-4 summarize the fluorescence signal intensity of the nanoparticle compositions including present invention lipids and the reference compounds in injection site and liver site.

C2C12 cells = test: In vitro cell Luc expression, C2C12; type: cell-based; details: 100 ng Luc mRNA-LNP, 24 h
Experimental: (§1) In vitro cell expression evaluation method: C2C12 cells, HepG2 cells, A20 cells were cultured, and 100,000 cells per well were plated on a 96-well plate. 100 ng of LNP samples were mixed with the cells and incubated for 24 hours (n=3), and then the expression was detected using luciferase quantitative kit 24 h after administration.

HepG2 cells = test: In vitro cell Luc expression, HepG2; type: cell-based; details: 100 ng Luc mRNA-LNP, 24 h
Experimental: as §1

In the case of CCCCCCCCC(CCCCCCCC)OC(=O)CCCCCCCN(CCO)CCCCCCCC(=O)OCCc1ccc(CCCC)cc1 [SW-II-118], the “Encapsulation Efficiency (EE, %)” value ([1]; phospholipid DAPC) is reported as 86.4%, the “Encapsulation Efficiency (EE, %)” value ([1]; phospholipid DMPE) is reported as 86.2% and the “Encapsulation Efficiency (EE, %)” value ([1]; phospholipid DOPE) is reported as 87.5%. The “Encapsulation Efficiency (EE, %)” value ([1]; phospholipid DPPC) was 83.4%, the “Encapsulation Efficiency (EE, %)” value ([1]; phospholipid DSPC) was 76.0% and the “Encapsulation Efficiency (EE, %)” value ([1]; phospholipid DSPE) was 81.0%. It also gave a PDI ([2]; phospholipid DAPC) of 0.28 ± 0.03, a Zeta potential ([2]; phospholipid DAPC) of −7.18 ± 0.42 mV and a Size ([2]; phospholipid DAPC) of 93.8 ± 1.6 nm. It also gave a PDI ([2]; phospholipid DMPE) of 0.29 ± 0.01, a Zeta potential ([2]; phospholipid DMPE) of −1.59 ± 0.19 mV and a Size ([2]; phospholipid DMPE) of 102.8 ± 2.3 nm. For the same molecule, the PDI ([2]; phospholipid DOPE) was 0.10 ± 0.04, the Zeta potential ([2]; phospholipid DOPE) was −4.31 ± 1.36 mV and the Size ([2]; phospholipid DOPE) was 111.3 ± 2.0 nm. For the same molecule, the PDI ([2]; phospholipid DPPC) was 0.26 ± 0.06, the Zeta potential ([2]; phospholipid DPPC) was −2.32 ± 0.32 mV and the Size ([2]; phospholipid DPPC) was 97.3 ± 2.6 nm. It also gave a PDI ([2]; phospholipid DPPE) of 0.54 ± 0.41, a Zeta potential ([2]; phospholipid DPPE) of −0.80 ± 0.58 mV and a Size ([2]; phospholipid DPPE) of 265.7 ± 306.1 nm. The PDI ([2]; phospholipid DSPC) was 0.37 ± 0.02, the Zeta potential ([2]; phospholipid DSPC) was −1.65 ± 0.58 mV and the Size ([2]; phospholipid DSPC) was 108.7 ± 2.5 nm. It also gave a PDI ([2]; phospholipid DSPE) of 0.21 ± 0.01, a Zeta potential ([2]; phospholipid DSPE) of −11.97 ± 1.19 mV and a Size ([2]; phospholipid DSPE) of 103.4 ± 2.0 nm. For the same molecule, the “Luc expression in liver site compared with injection site (FIG. 2)” value (Balb/C mice [3]) was “higher than that in injection site”, the “in vivo Luc expressions (FIG. 2)” value (Balb/C mice [3]; compared with MC3) was “higher than that of MC3” and the “Luc expression in injection site, I.M. injection site, 6 h (ratio relative to SW-II-134-3 set as 1)” value (Balb/C mice [4]) was 1.450. For the same molecule, the “Luc expression in liver site, Liver site upon I.M., 6 h (ratio relative to SW-II-137-1 set as 1)” value (Balb/C mice [4]) was 2.234, the “C2C12 cell, in vitro expression” value (C2C12 cells; phospholipid DAPC) was 32703.5 and the “C2C12 cell, in vitro expression” value (C2C12 cells; phospholipid DMPE) was 218015.5. The “C2C12 cell, in vitro expression” value (C2C12 cells; phospholipid DOPE) was 300431.5, the “C2C12 cell, in vitro expression” value (C2C12 cells; phospholipid DPPC) was 260091 and the “C2C12 cell, in vitro expression” value (C2C12 cells; phospholipid DPPE) was 1254.5. For the same molecule, the “C2C12 cell, in vitro expression” value (C2C12 cells; phospholipid DSPC) was 80658, the “C2C12 cell, in vitro expression” value (C2C12 cells; phospholipid DSPE) was 46290.5 and the “HepG2 cell, in vitro expression” value (HepG2 cells; phospholipid DAPC) was 6674. For the same molecule, the “HepG2 cell, in vitro expression” value (HepG2 cells; phospholipid DMPE) was 17608.5, the “HepG2 cell, in vitro expression” value (HepG2 cells; phospholipid DOPE) was 17838.5 and the “HepG2 cell, in vitro expression” value (HepG2 cells; phospholipid DPPC) was 31083. The “HepG2 cell, in vitro expression” value (HepG2 cells; phospholipid DPPE) was 86, the “HepG2 cell, in vitro expression” value (HepG2 cells; phospholipid DSPC) was 11247.5 and the “HepG2 cell, in vitro expression” value (HepG2 cells; phospholipid DSPE) was 3053.
